According to ChEMBL document CHEMBL5614374, “Novel carbazole-oxadiazole derivatives as anti-α-glucosidase and anti-α-amylase agents: Design, synthesis, molecular docking, and biological evaluation” (Eur J Med Chem, 2024):
Calls of active or inactive are those of the source. The rule behind the calls is not given here.

Key:
Alpha-amylase [1] = biological target: T1, Alpha-amylase (Sus scrofa domesticus, UniProt Q7M328); assay: Inhibition of hog pancreatic alpha-amylase using soluble starch as substrate preincubated for 10 mins followed by substrate addition and measured after 15 mins by absorbance based analysis
T1 sequence (Q7M328 whole entry): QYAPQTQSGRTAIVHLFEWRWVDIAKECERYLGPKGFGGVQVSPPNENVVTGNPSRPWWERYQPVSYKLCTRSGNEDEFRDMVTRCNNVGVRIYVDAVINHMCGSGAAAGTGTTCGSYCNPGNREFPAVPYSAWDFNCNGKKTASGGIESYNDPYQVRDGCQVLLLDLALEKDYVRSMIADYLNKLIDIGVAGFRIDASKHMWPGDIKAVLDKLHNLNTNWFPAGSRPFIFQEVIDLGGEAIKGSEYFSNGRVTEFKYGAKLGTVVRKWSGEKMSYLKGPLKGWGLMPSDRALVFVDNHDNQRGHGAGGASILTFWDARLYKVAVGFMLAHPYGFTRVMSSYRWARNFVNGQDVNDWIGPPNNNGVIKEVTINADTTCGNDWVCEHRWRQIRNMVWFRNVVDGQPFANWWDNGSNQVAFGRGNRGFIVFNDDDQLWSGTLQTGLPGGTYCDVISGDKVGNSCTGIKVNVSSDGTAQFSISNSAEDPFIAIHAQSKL

Alpha-glucosidase [2] = biological target: T2, Alpha-glucosidase (Saccharomyces cerevisiae S288c, UniProt P53341+P38158+P07265); assay: Inhibition of Saccharomyces cerevisiae alpha-glucosidase using p-nitrophenyl-alpha-D-glucopyranoside as substrate preincubated for 0.25 hrs followed by substrate addition and measured after 0.5 hrs by spectrophotometric analysis; format: protein assay
[3] = biological target: T3, Alpha-glucosidase (Saccharomyces cerevisiae S288c) (UniProt P53341+P38158+P07265); assay: Inhibition of alpha-glucosidase (unknown origin) assessed as effect on secondary structure by measuring beta-sheet content at 5 uM by CD spectra (reference value: 18.1 %); format: protein assay; parameters: scale not given: the % may be the effect or the level left
[4] = biological target: T3, Alpha-glucosidase (Saccharomyces cerevisiae S288c); assay: Inhibition of alpha-glucosidase (unknown origin) assessed as effect on secondary structure by measuring reduction in alpha-helix content at 30 uM by CD spectra (reference value: 32.1 %); format: protein assay; parameters: scale not given: the % may be the effect or the level left; details: Homo sapiens
Mus musculus [5] = assay: Reduction in blood glucose concentration in male Kunming mouse assessed as decrease in AUC at 20 mg/kg, IG preadministered for 40 mins followed by saccharose addition and measured after 150 mins by sucrose loading test relative to control; format: functional; parameters: scale not given: the % may be the effect or the level left; details: time 190 min, 3.167 h
[6] = biological target: T3, Alpha-glucosidase (Saccharomyces cerevisiae S288c); assay: Mixed-type inhibition of Saccharomyces cerevisiae alpha-glucosidase using p-nitrophenyl-alpha-D-glucopyranoside as substrate assessed as decrease in Km and Vmax upto 20 uM incubated for 7 mins by spectrophotometer based Lineweaver-Burk plot analysis; format: protein assay
[7] = biological target: T3, Alpha-glucosidase (Saccharomyces cerevisiae S288c); assay: Inhibition of alpha-glucosidase (unknown origin) assessed as effect on secondary structure by measuring reduction in alpha-helix content at 20 uM by CD spectra (reference value: 32.1 %); format: protein assay; parameters: scale not given: the % may be the effect or the level left; details: Homo sapiens
[8] = biological target: T3, Alpha-glucosidase (Saccharomyces cerevisiae S288c); assay: Inhibition of alpha-glucosidase (unknown origin) assessed as effect on secondary structure by measuring reduction in alpha-helix content at 10 uM by CD spectra (reference value: 32.1 %); format: protein assay; parameters: scale not given: the % may be the effect or the level left; details: Homo sapiens
[9] = biological target: T3, Alpha-glucosidase (Saccharomyces cerevisiae S288c); assay: Inhibition of alpha-glucosidase (unknown origin) assessed as effect on secondary structure by measuring random coil content at 10 uM by CD spectra (reference value: 33.1 %); format: protein assay; parameters: scale not given: the % may be the effect or the level left; details: Homo sapiens
[10] = biological target: T3, Alpha-glucosidase (Saccharomyces cerevisiae S288c); assay: Inhibition of alpha-glucosidase (unknown origin) assessed as effect on secondary structure by measuring beta-turn content at 30 uM by CD spectra (reference value: 17.1 %); format: protein assay; parameters: scale not given: the % may be the effect or the level left
[11] = biological target: T3, Alpha-glucosidase (Saccharomyces cerevisiae S288c); assay: Inhibition of alpha-glucosidase (unknown origin) assessed as effect on secondary structure by measuring reduction in alpha-helix content at 5 uM by CD spectra (reference value: 32.1 %); format: protein assay; parameters: scale not given: the % may be the effect or the level left; details: Homo sapiens
[12] = biological target: T3, Alpha-glucosidase (Saccharomyces cerevisiae S288c); assay: Inhibition of alpha-glucosidase (unknown origin) assessed as effect on secondary structure by measuring random coil content at 30 uM by CD spectra (reference value: 33.1 %); format: protein assay; parameters: scale not given: the % may be the effect or the level left; details: Homo sapiens
[13] = biological target: T3, Alpha-glucosidase (Saccharomyces cerevisiae S288c); assay: Inhibition of alpha-glucosidase (unknown origin) assessed as increase in enzyme particle size at 1 uM incubated for 15 mins by AFM imaging analysis; format: protein assay
[14] = biological target: T3, Alpha-glucosidase (Saccharomyces cerevisiae S288c); assay: Inhibition of alpha-glucosidase (unknown origin) assessed as increase in enzyme particle thickness at 1 uM incubated for 15 mins by AFM imaging analysis; format: protein assay
Alpha-glucosidase [15] = biological target: T2, Alpha-glucosidase; assay: Inhibition of Saccharomyces cerevisiae alpha-glucosidase using p-nitrophenyl-alpha-D-glucopyranoside as substrate assessed as inhibition constant of enzyme-substrate complex incubated for 7 mins by spectrophotometer based Lineweaver-Burk plot analysis; format: protein assay
[16] = biological target: T3, Alpha-glucosidase (Saccharomyces cerevisiae S288c); assay: Inhibition of alpha-glucosidase (unknown origin) assessed as effect on secondary structure by measuring beta-turn content at 20 uM by CD spectra (reference value: 17.1 %); format: protein assay; parameters: scale not given: the % may be the effect or the level left
[17] = biological target: T3, Alpha-glucosidase (Saccharomyces cerevisiae S288c); assay: Inhibition of alpha-glucosidase (unknown origin) assessed as effect on secondary structure by measuring beta-sheet content at 30 uM by CD spectra (reference value: 18.1 %); format: protein assay; parameters: scale not given: the % may be the effect or the level left
Mus musculus [18] = assay: Reduction in blood glucose concentration in male Kunming mouse at 20 mg/kg, IG preadministered for 40 mins followed by saccharose addition and measured after 30 mins by sucrose loading test; format: functional, organism-based; details: time 70.0 min
[19] = biological target: T3, Alpha-glucosidase (Saccharomyces cerevisiae S288c); assay: Inhibition of alpha-glucosidase (unknown origin) assessed as effect on secondary structure by measuring random coil content at 20 uM by CD spectra (reference value: 33.1 %); format: protein assay; parameters: scale not given: the % may be the effect or the level left
[20] = Cytotoxicity against HEK293 cells assessed as cell viability at 60 uM incubated for 1 day by MTT assay relative to control; format: toxicity, cell-based; details: human, read-out: Activity
[21] = biological target: T3, Alpha-glucosidase (Saccharomyces cerevisiae S288c); assay: Inhibition of alpha-glucosidase (unknown origin) assessed as effect on secondary structure by measuring beta-sheet content at 10 uM by CD spectra (reference value: 18.1 %); format: protein assay; parameters: scale not given: the % may be the effect or the level left
[22] = biological target: T3, Alpha-glucosidase (Saccharomyces cerevisiae S288c); assay: Inhibition of alpha-glucosidase (unknown origin) assessed as effect on secondary structure by measuring random coil content at 5 uM by CD spectra (reference value: 33.1 %); format: protein assay; parameters: scale not given: the % may be the effect or the level left; details: Homo sapiens
[23] = biological target: T3, Alpha-glucosidase (Saccharomyces cerevisiae S288c); assay: Inhibition of alpha-glucosidase (unknown origin) assessed as effect on secondary structure by measuring beta-sheet content at 20 uM by CD spectra (reference value: 18.1 %); format: protein assay; parameters: scale not given: the % may be the effect or the level left
[24] = Cytotoxicity against HEK293 cells incubated for 1 day by MTT assay; format: toxicity, cell-based; details: human
[25] = biological target: T3, Alpha-glucosidase (Saccharomyces cerevisiae S288c); assay: Inhibition of alpha-glucosidase (unknown origin) assessed as effect on secondary structure by measuring beta-turn content at 5 uM by CD spectra (reference value: 17.1 %); format: protein assay; parameters: scale not given: the % may be the effect or the level left; details: Homo sapiens
[26] = biological target: T3, Alpha-glucosidase (Saccharomyces cerevisiae S288c); assay: Inhibition of alpha-glucosidase (unknown origin) assessed as effect on secondary structure by measuring beta-turn content at 10 uM by CD spectra (reference value: 17.1 %); format: protein assay; parameters: scale not given: the % may be the effect or the level left
Alpha-amylase [27] = biological target: T1, Alpha-amylase; assay: Inhibition of hog pancreatic alpha-amylase using soluble starch as substrate assessed as inhibition constant of free alpha-amylase preincubated for 10 mins followed by substrate addition and measured after 15 mins by Lineweaver-Burk plot analysis
[28] = biological target: Alpha amylase (Homo sapiens) (UniProt P0DUB6); assay: Inhibition of alpha-amylase (unknown origin) assessed as increase in enzyme particle thickness at 50 uM incubated for 30 mins by AFM imaging analysis; format: protein assay
Alpha-amylase [29] = biological target: T1, Alpha-amylase; assay: Inhibition of hog pancreatic alpha-amylase using soluble starch as substrate assessed as inhibition constant of enzyme-substrate complex preincubated for 10 mins followed by substrate addition and measured after 15 mins by Lineweaver-Burk plot analysis
[30] = biological target: T4, Alpha-amylase (Sus scrofa domesticus) (UniProt Q7M328); assay: Mixed-type inhibition of hog pancreatic alpha-amylase using soluble starch as substrate upto 35 uM preincubated for 10 mins followed by substrate addition and measured after 15 mins by Lineweaver-Burk plot analysis; details: time 25.0 min
T4 sequence (whole entry): T1 sequence (Q7M328 whole entry)

Alpha-glucosidase [31] = biological target: T2, Alpha-glucosidase; assay: Inhibition of Saccharomyces cerevisiae alpha-glucosidase using p-nitrophenyl-alpha-D-glucopyranoside as substrate assessed as inhibition constant of free alpha-glucosidase incubated for 7 mins by spectrophotometer based Lineweaver-Burk plot analysis; format: protein assay
[32] = biological target: Alpha amylase (Homo sapiens) (UniProt P0DUB6); assay: Inhibition of alpha-amylase (unknown origin) assessed as increase in enzyme particle size at 50 uM incubated for 30 mins by AFM imaging analysis; format: protein assay

Sequence of Alpha amylase (Homo sapiens) (P0DUB6 whole entry, looked up): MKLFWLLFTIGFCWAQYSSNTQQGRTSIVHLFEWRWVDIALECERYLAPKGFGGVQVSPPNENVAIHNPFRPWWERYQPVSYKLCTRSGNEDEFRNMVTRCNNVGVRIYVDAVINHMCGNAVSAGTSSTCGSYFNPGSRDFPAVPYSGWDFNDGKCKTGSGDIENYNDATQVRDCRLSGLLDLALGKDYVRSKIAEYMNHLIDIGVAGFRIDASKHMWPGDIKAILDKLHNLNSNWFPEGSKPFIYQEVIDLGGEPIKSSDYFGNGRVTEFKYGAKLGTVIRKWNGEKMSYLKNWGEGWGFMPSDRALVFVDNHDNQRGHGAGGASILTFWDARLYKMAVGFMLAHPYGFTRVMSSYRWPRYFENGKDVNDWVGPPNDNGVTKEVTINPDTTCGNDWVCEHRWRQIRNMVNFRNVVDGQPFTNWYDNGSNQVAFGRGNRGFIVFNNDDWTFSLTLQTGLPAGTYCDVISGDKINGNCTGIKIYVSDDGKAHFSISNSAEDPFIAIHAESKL

## Cc1cccc(NC(=O)CSc2nnc(CCn3c4ccccc4c4ccccc43)o2)c1
Alpha-amylase [1]
  IC50: 81.2 µM
Alpha-glucosidase [2]
  IC50: 66.89 µM

## Cc1ccc(NC(=O)CSc2nnc(CCn3c4ccccc4c4ccccc43)o2)c([N+](=O)[O-])c1
Alpha-amylase [1]
  IC50: 54.6 µM
Alpha-glucosidase [2]
  IC50: 67.35 µM

## Cc1ccccc1NC(=O)CSc1nnc(CCn2c3ccccc3c3ccccc32)o1
Alpha-amylase [1]
  IC50: > 200 µM
Alpha-glucosidase [2]
  IC50: > 300 µM

## O=C(CSc1nnc(CCn2c3ccccc3c3ccccc32)o1)Nc1ccc([N+](=O)[O-])cc1
Alpha-amylase [1]
  IC50: 86.3 µM
Alpha-glucosidase [2]
  IC50: 22.22 µM

## CCOc1ccc(NC(=O)CSc2nnc(CCn3c4ccccc4c4ccccc43)o2)cc1
[3]
  Activity: 20%
[4]
  Activity: 25.1%
Mus musculus [5]
  Activity: 11.74%
[6]
  inhibition: Active
[7]
  Activity: 25.7%
[8]
  Activity: 28.5%
[9]
  Activity: 36.1%
[10]
  Activity: 18.5%
[11]
  Activity: 28.9%
[12]
  Activity: 38.8%
[13]
  inhibition: Active
[14]
  inhibition: Active
Alpha-glucosidase [15]
  Ki: 13.19 µM
[16]
  Activity: 18.4%
[17]
  Activity: 22.9%
Mus musculus [18]
  Activity: Active
Alpha-amylase [1]
  IC50: 61.5 µM
[19]
  Activity: 38.1%
[20]
  viability at 24 h, 60 µM: 96.1%
[21]
  Activity: 20.3%
[22]
  Activity: 35.3%
[23]
  Activity: 22.4%
Alpha-glucosidase [2]
  IC50: 21.39 µM
[24]
  IC50 at 1 day: 193 µM
[25]
  Activity: 17.7%
[26]
  Activity: 17.8%

## C[C@H]1O[C@H](O[C@H]2[C@H](O)[C@@H](O)[C@@H](O[C@H]3[C@H](O)[C@@H](O)C(O)O[C@@H]3CO)O[C@@H]2CO)[C@H](O)[C@@H](O)[C@@H]1N[C@H]1C=C(CO)[C@@H](O)[C@H](O)[C@H]1O (some centres undefined) [ACARBOSE]
Mus musculus [5]
  Activity: 28.57%
Mus musculus [18]
  Activity: Active

## O=C(CSc1nnc(CCn2c3ccccc3c3ccccc32)o1)Nc1ccc(Cl)cc1Cl
Alpha-amylase [1]
  IC50: 94.3 µM
Alpha-glucosidase [2]
  IC50: 92.05 µM

## O=C(CSc1nnc(CCn2c3ccccc3c3ccccc32)o1)Nc1ccccc1
Alpha-amylase [1]
  IC50: 56.2 µM
Alpha-glucosidase [2]
  IC50: 43.26 µM

## O=C(CSc1nnc(CCn2c3ccccc3c3ccccc32)o1)Nc1ccc(Cl)cc1[N+](=O)[O-]
Alpha-amylase [1]
  IC50: 89.7 µM
Alpha-glucosidase [2]
  IC50: 37.96 µM

## Cc1ccc(NC(=O)CSc2nnc(CCn3c4ccccc4c4ccccc43)o2)cc1
Alpha-amylase [1]
  IC50: 126 µM
Alpha-glucosidase [2]
  IC50: 80.64 µM

## O=C(CSc1nnc(CCn2c3ccccc3c3ccccc32)o1)Nc1ccc(Cl)cc1
Alpha-amylase [1]
  IC50: 83.2 µM
Alpha-glucosidase [2]
  IC50: 22.07 µM

## Cc1ccc(NC(=O)CSc2nnc(CCn3c4ccccc4c4ccccc43)o2)c(C)c1
Alpha-amylase [1]
  IC50: 120 µM
Alpha-glucosidase [2]
  IC50: > 300 µM

## O=C(CSc1nnc(CCn2c3ccccc3c3ccccc32)o1)Nc1ccc(F)cc1
Mus musculus [5]
  Activity: 10.66%
Alpha-amylase [27]
  Ki: 45.1 µM
[28]
  inhibition: Active
Alpha-amylase [29]
  Ki: 63.3 µM
[30]
  inhibition: Active
Alpha-glucosidase [31]
  Ki: 22.04 µM
Mus musculus [18]
  Activity: Active
Alpha-amylase [1]
  IC50: 45.5 µM
[20]
  viability at 24 h, 60 µM: 90.3%
Alpha-glucosidase [2]
  IC50: 27.73 µM
[24]
  IC50 at 1 day: 181 µM
[32]
  inhibition: Active

## COc1ccc(NC(=O)CSc2nnc(CCn3c4ccccc4c4ccccc43)o2)c([N+](=O)[O-])c1
Alpha-amylase [1]
  IC50: 64.6 µM
Alpha-glucosidase [2]
  IC50: 85.95 µM

## O=C(CSc1nnc(CCn2c3ccccc3c3ccccc32)o1)Nc1ccc(Oc2ccccc2)cc1
Alpha-amylase [1]
  IC50: 74.8 µM
Alpha-glucosidase [2]
  IC50: 39.52 µM
